Reference: US8936808B1, “Opioid agonist/opioid antagonist/acetaminophen combinations” (Purdue Pharma L.P., priority 1997, dated 2015)
Entries after “also recorded” stand apart in the source; their conditions may differ. Where two headings read alike, the source gives them in different places.

Experiments:
[1] = test system: opioid agonist effects of hydrocodone; assay: Example 2: ratio of oral naltrexone to oral hydrocodone, ten-period crossover (VAS drug effect, pupil diameter); type: in vivo, human
Protocol: All treatments were administered under fasted conditions. […] Subjects were randomly assigned to ten treatment sequences of the ten treatment groups.
The fast continued for an additional four (4) hours post-dose.
All samples were collected within ±2 minute of the scheduled time.

[2] = test system: precipitated withdrawal / subjective effects of hydrocodone; assay: Example 3: precipitated withdrawal in morphine dependent volunteers receiving hydrocodone 30 mg and naltrexone oral solution; type: in vivo, human
[3] = test system: mu over delta sites; settings: cited from earlier work
[4] = test system: opioid agonist properties of hydrocodone; assay: Example 1: naltrexone antagonism of hydrocodone 15 mg (VAS drug effect, pupillometry), four-way crossover study
Protocol: All treatments were administered under fasted conditions. […] Subjects were randomly assigned to four treatment sequences of the four treatment groups. […] Safety measurements consisted of reports of adverse events, vital signs, abnormal laboratory values, abnormal physical examination and ECG results. Pharmacodynamic parameters (pupil size and Modified Specific Drug Effect Questionnaire) were also assessed.
Pupil Size—Measured by Pupillometry.
The camera was centered in front of the subject's face with 3 inch frame against the lateral orbital rims and the eyes occupying the very top of the field (to minimize upgaze). The subject was asked to look just over the camera body and to fixate on a non-accommodative target in the distance, thereby minimizing the near reflex. With the volunteer fixing in the distance, the photo was taken. All photographs were taken in constant ambient light. The pupillary latency was such that the flash will not affect pupillary diameter. […] Development of the print for the recommended length of time (approximately one (1) minute, varying with ambient temperature) will produce a one-to-one photograph of the volunteer's midface, with the pupils at the top of the print. Horizontal pupillary diameter is then measured using a simple plus magnifier with a built-in reticule calibrated to 0.1 millimeter. Only the left eye was used to measure pupillary effects at each time period specified in the protocol. • b. A Modified Specific Drug Effect Questionnaire. […] The present questionnaire consisted of 10 items rated by the subject 10 minutes prior to blood sampling. The item is related to signs of opiate agonist drugs and was as follows: Subject questions: 1) do you feel any effects from the drugs?, 2) does your skin feel itchy?, 3) do you feel relaxed?, 4) do you feel sleepy?, 5) do you feel drunk?, 6) do you feel nervous?, 7) do you feel full of energy?, 8) do you feel you need to talk?, 9) do you feel sick to your stomach?, 10) do you feel dizzy? The subject then rated the item by placing a vertical mark along a 100 mm visual analog scale (VAS) anchored on one end by “not at all” and at the other end by “an awful lot”.

[5] = test system: effects of morphine-like opioid agonist / heroin; settings: cited from earlier work
[6] = type: in vivo
From the text: In certain other preferred embodiments, the opioid included in the dosage form is a different orally active opioid agonist than hydrocodone. […] Equianalgesic dosages of various opioid analgesics are provided below, and are otherwise known to those skilled in the art, e.g, from Foley, K. “The Treatment of Cancer Pain;” N. Engl.
In certain preferred embodiments, the opioid agonist is hydrocodone. Equianalgesic doses of the remaining opioids mentioned herein (and others) are known to those skilled in the art.

[7] = cited from earlier work
[8] = cited from earlier work; remark: listed apart in the source
[9] = cited from earlier work; remark: listed apart in the source
[10] = 15 mg hydrocodone (HYIR/APAP) with increasing doses of naltrexone, range 0 mg-12.8 mg
[11] = 6.4-mg naltrexone dose, hydrocodone 15 mg
[12] = in comparison to a 15 mg dose of hydrocodone

With `O=C1CC[C@@]2(O)[C@H]3Cc4ccc(O)c5c4[C@@]2(CCN3CC2CC2)[C@H]1O5` [naltrexone] the “drug effect VAS score” value [1, 10] was “overall decrease”, the “pupillary constriction / pupil diameter” value [1, 10] was “decrease in pupillary constriction; also recorded: increase in pupil diameter” and the “antagonism of the 15 mg hydrocodone dose” value ([1]; approximately 0.4 mg naltrexone) was “minimally antagonized”. The “effect of the hydrocodone dose” value ([1]; naltrexone dosages above 0.4 mg) was “increasing diminution”, the “precipitated withdrawal (abstinence)” value ([2]; naltrexone 1 and 2 mg with hydrocodone 30 mg, first protocol) was “slight abstinence” and the “subjective experience of hydrocodone on addition of naltrexone” value ([2]; physically dependent subjects, hydrocodone 30 mg) was “decreased the favorable subjective experience of hydrocodone”. For the same molecule, the “blocking action, receptor preference” value [3] was “strong preferential blocking action against mu over delta sites”, the “block of the opioid effect (VAS drug effect) of hydrocodone” value [4, 11] was “not completely blocked” and the “block of the pupillary constriction of hydrocodone” value [4, 11] was “not completely blocked”. The “antagonism of hydrocodone-induced pupillary constriction, relation to dose” value ([4]; naltrexone 3.2 and 6.4 mg with hydrocodone 15 mg, FIG. 2) was “dose-response effect”, the “antagonism of hydrocodone-induced VAS drug effect, relation to dose” value ([4]; naltrexone oral solution 3.2 and 6.4 mg with hydrocodone 15 mg, FIG. 1) was “dose-response effect” and the “effect on opioid agonist effects of 25 mg intravenous heroin challenge” value ([5]; 50 mg given 24 hours prior to challenge) was “completely blocked or attenuated”.

In the case of `C=CCN1CC[C@]23c4c5ccc(O)c4O[C@H]2C(=O)CC[C@@]3(O)[C@H]1C5` [naloxone], the “block of the effect of 25 mg of heroin” value ([5]; 1 mg intravenously) is given as “completely block” and the “effect on morphine-like opioid agonist effects” value ([5]; 0.4-0.8 mg intramuscularly or intravenously in man) is given as “prevent or promptly reverse”.

For `CN1CC[C@]23CCCC[C@H]2[C@H]1Cc1ccc(O)cc13` [Levorphanol], the “Equianalgesic Doses of Opioids, Calculated Dose” value [6, 12] was 1.8 mg.

In the case of `COc1ccc2c3c1O[C@H]1[C@@H](O)C=C[C@H]4[C@@H](C2)N(C)CC[C@@]341` [Codeine], the “Equianalgesic Doses of Opioids, Calculated Dose” value [6, 12] is reported as 90.0 mg.

In the case of `CC(=O)Nc1ccc(O)cc1` [acetaminophen], the “solubility in water” value [7] is listed as “only poorly soluble in water”.

With `COc1ccc2c3c1O[C@H]1C(=O)CC[C@@]4(O)[C@@H](C2)N(C)CC[C@]314` [Oxycodone] the “Equianalgesic Doses of Opioids, Calculated Dose” value [6, 12] was 13.5 mg.

For `C[C@H]1[C@H]2Cc3ccc(O)cc3[C@]1(C)CCN2CC1CC1` [cyclazocine], the “duration of action after oral doses” value [8] is given as about 24 h.

For Meperidine, the “Equianalgesic Doses of Opioids, Calculated Dose” value [6, 12] was 135.0 mg.

In the case of `CN1CC[C@]23c4c5ccc(O)c4O[C@H]2[C@@H](O)C=C[C@H]3[C@H]1C5` [Morphine], the “Equianalgesic Doses of Opioids, Calculated Dose” value ([6]; in vivo) is reported as 27.0 mg.

In the case of `COc1ccc2c3c1OC1C(=O)CC[C@H]4[C@@H](C2)N(C)CC[C@]314` (stereo partly drawn) [Hydrocodone, 4,5-epoxy-3-methoxy-17-methylmorphinan-6-one], the “Equianalgesic Doses of Opioids, Calculated Dose” value [6, 12] is listed as 15.0 mg, the onset of effect ([2]; in combination with naltrexone) is listed as under 0.5 h and the “relative analgesic potency versus oral morphine” value ([9]; in vivo, po) is listed as “about two times”. The pupillary constriction ([4]; hydrocodone 15 mg plus naltrexone placebo) was “most pupillary constriction”.

In the case of `CCC(=O)C(CC(C)N(C)C)(c1ccccc1)c1ccccc1` (stereo not drawn) [Methadone], the “Equianalgesic Doses of Opioids, Calculated Dose” value [6, 12] is reported as 9.0 mg.

For `CN1CC[C@]23c4c5ccc(O)c4O[C@H]2[C@@H](O)C=C[C@H]3[C@H]1C5.O=S(=O)(O)O` [morphine sulphate], the “oral hydrocodone dose equivalent to 15 mg i.m.” value ([9]; 15 mg i.m.) is given as 30 mg.
